Assay results as given in article PMC9574867, “Discovery and Characterization of Synthesized and FDA-Approved Inhibitors of Clostridial and Bacillary Collagenases” (Journal of Medicinal Chemistry, 2022).
“Also recorded” adds a separate entry of the source.

Test system: MDCK II cells challenged with B. cereus AH187 supernatant
Assay type: cell-based, canine

| SMILES | TEER of MDCK II cells challenged with supernatant |
| --- | --- |
| O=P(O)(O)c1nc2ccc(Br)cc2nc1P(=O)(O)O [Compound 10, (6-Bromoquinoxaline-2,3-diyl)bis(phosphonic acid)] | retain the TEER of the challenged cells |
| Cc1ccc2nc(P(=O)(O)O)c(P(=O)(O)O)nc2c1 [Compound 11, (6-Methylquinoxaline-2,3-diyl)bis(phosphonic acid)] | maintained the TEER of MDCK II cells challenged with B. cereus supernatant |
| O=P([O-])(O)C(Sc1ccc(Cl)cc1)P(=O)([O-])O.[Na+].[Na+] [Tiludronate disodium, reference compound] | maintained the TEER of MDCK II cells challenged with B. cereus supernatant |
| O=P(O)(O)c1nc2cc(Cl)c(Cl)cc2nc1P(=O)(O)O [Compound 13, (6,7-Dichloroquinoxaline-2,3-diyl)bis(phosphonic acid)] | retain the TEER of the challenged cells; also recorded: maintained the TEER of MDCK II cells challenged with B. cereus supernatant |
| O=P(O)(O)c1nc2ccc(-c3ccc(Cl)cc3)cc2nc1P(=O)(O)O [Compound 15, (6-(4-Chlorophenyl)quinoxaline-2,3-diyl)bis(phosphonic acid)] | maintained the TEER of MDCK II cells challenged with B. cereus supernatant |
